# Patent US4769250A, “Antracycline antineoplastic agents encapsulated in phospholipid vesicle particles and methods for using same for tumor therapy” (priority 1987, dated 1988)
# Experiments:
# DNA = conditions: binding to DNA; read-out: affinity for binding to DNA in a cell (converted); cited from earlier work
# [1] = toxicity determined by survival in tumor-bearing mice; format: in vivo
# [2] = test system: P-1798 solid lymphosarcoma; test: single dose chemotherapeutic efficacy, intradermal P-1798 solid lymphosarcoma; format: in vivo, mice; conditions: 20 mg/kg single dose
# Experimental: In the first investigation, groups of 10 mice received free daunorubicin or daunorubicin-vesicles in 20 mg/kg single doses at three or four days following tumor implantation. Tumors were measured using calipers and the survival over time of treated and control mice was recorded. Controls consisted of injections of a 5% dextrose in water solution at 2 ml/20 gm doses.
# Representative results of these investigations are shown in FIG. 5 for treatment commencing on day 3 after tumor implantation. Typically, with tumor metastasis, mice with tumors die within 14-17 days. […] The median life span of mice injected with daunorubicin-vesicles was 21 days.
# [3] = binding to distearoyl phosphatidylglycerol; read-out: binding constant; cited from earlier work
# [4] = children highly susceptible (Mosijezuk et al.); cited from earlier work
SMILES,Kd (DNA) [µM],"toxicity induced deaths by dose ([1]; 10, 20 and 30 mg/kg)","mortality ([1]; mouse, in vivo, 30 mg/kg, read-out: toxicity induced deaths) [%]",inhibition of tumor growth vs untreated controls [2],Kd [3] [µM],cardiotoxicity [4]
COc1cccc2c1C(=O)c1c(O)c3c(c(O)c1C2=O)C[C@@](O)(C(C)=O)C[C@@H]3O[C@H]1C[C@H](N)[C@H](O)[C@H](C)O1 [daunorubicin],~0.5,toxicity induced deaths occurred only for the high dose unencapsulated daunorubicin (30 mg/kg),100,significant inhibition of tumor growth,~10,
COc1cccc2c1C(=O)c1c(O)c3c(c(O)c1C2=O)C[C@@](O)(C(=O)CO)C[C@@H]3O[C@H]1C[C@H](N)[C@H](O)[C@H](C)O1 [doxorubicin],,,,,,congestive heart failure
